PubChem BioAssay AID1919015 (Molecular Pharmacology Branch, DTP, NCI, 2023)
“And” between values parts separate entries of the source, which are not always exact repeats. Equal entries are not always repeated.

Tested on: OVCAR-5 complex spheroids with HUVEC/MSC, viability, % test/control
Assay: Anticancer human tumor OVCAR-5 cell line growth inhibition [AhR];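 also: spheroids exposed to compounds for 7 days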;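 as to viability, T/C: 100% = DMSO vehicle control wells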
Settings: for viability, T/C: stronger effect = lower value
Procedure, shortened: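 Agents were dosed in half-log steps down from roughly clinical Cmax, or from 10 microM where Cmax was unknown, alone and with AhR antagonists. Read-out: percent test/control growth of tumor spheroids containing HUVEC and MSC stromal cells.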

[1] = curve of first compound, second compound 0.1 µM
[2] = curve of first compound, second compound 0.316 µM
[3] = curve of first compound, second compound 1 µM
[4] = curve of first compound, second compound 3.16 µM
[5] = curve of first compound, second compound 10 µM
[6] = second compound 0.1 µM, first compound 0.0316 µM
[7] = second compound 0.1 µM, first compound 0.1 µM
[8] = second compound 0.1 µM, first compound 0.316 µM
[9] = second compound 0.1 µM, first compound 1 µM
[10] = second compound 0.1 µM, first compound 3.16 µM
[11] = second compound 0.1 µM, first compound 10 µM
[12] = second compound 0.316 µM, first compound 0.0316 µM
[13] = second compound 0.316 µM, first compound 0.1 µM
[14] = second compound 0.316 µM, first compound 0.316 µM
[15] = second compound 0.316 µM, first compound 1 µM
[16] = second compound 0.316 µM, first compound 3.16 µM
[17] = second compound 0.316 µM, first compound 10 µM
[18] = second compound 1 µM, first compound 0.0316 µM
[19] = second compound 1 µM, first compound 0.1 µM
[20] = second compound 1 µM, first compound 0.316 µM
[21] = second compound 1 µM, first compound 1 µM
[22] = second compound 1 µM, first compound 3.16 µM
[23] = second compound 1 µM, first compound 10 µM
[24] = second compound 3.16 µM, first compound 0.0316 µM
[25] = second compound 3.16 µM, first compound 0.1 µM
[26] = second compound 3.16 µM, first compound 0.316 µM
[27] = second compound 3.16 µM, first compound 1 µM
[28] = second compound 3.16 µM, first compound 3.16 µM
[29] = second compound 3.16 µM, first compound 10 µM
[30] = second compound 10 µM, first compound 0.0316 µM
[31] = second compound 10 µM, first compound 0.1 µM
[32] = second compound 10 µM, first compound 0.316 µM
[33] = second compound 10 µM, first compound 1 µM
[34] = second compound 10 µM, first compound 3.16 µM
[35] = second compound 10 µM, first compound 10 µM

CCc1c2c(nc3ccc(O)cc13)-c1cc3c(c(=O)n1C2)COC(=O)[C@]3(O)CC + Cc1cncc(-c2nc(NCCc3c[nH]c4ccccc34)c3ncn(C(C)C)c3n2)c1
IC50 [1]: 9.8 nM | IC50 [2]: 9.09 nM | IC50 [3]: 8.08 nM | IC50 [4]: 3.77 nM | IC50 [5]: < 0.949 nM | viability, T/C (second compound 0.1 µM, first compound 0.000949 µM): 83.8% | viability, T/C (second compound 0.1 µM, first compound 0.003 µM): 59% | viability, T/C (second compound 0.1 µM, first compound 0.00949 µM): 46.3% | viability, T/C (second compound 0.1 µM, first compound 0.03 µM): 44.8% | viability, T/C (second compound 0.1 µM, first compound 0.0949 µM): 23.4% | viability, T/C (second compound 0.1 µM, first compound 0.3 µM): 9.85% | viability, T/C (second compound 0.316 µM, first compound 0.000949 µM): 80.1% | viability, T/C (second compound 0.316 µM, first compound 0.003 µM): 57.1% | viability, T/C (second compound 0.316 µM, first compound 0.00949 µM): 47.4% | viability, T/C (second compound 0.316 µM, first compound 0.03 µM): 42.3% | viability, T/C (second compound 0.316 µM, first compound 0.0949 µM): 22.8% | viability, T/C (second compound 0.316 µM, first compound 0.3 µM): 9.22% | viability, T/C (second compound 1 µM, first compound 0.000949 µM): 73.1% | viability, T/C (second compound 1 µM, first compound 0.003 µM): 51.4% | viability, T/C (second compound 1 µM, first compound 0.00949 µM): 50.7% | viability, T/C (second compound 1 µM, first compound 0.03 µM): 42.3% | viability, T/C (second compound 1 µM, first compound 0.0949 µM): 21.5% | viability, T/C (second compound 1 µM, first compound 0.3 µM): 9.57% | viability, T/C (second compound 3.16 µM, first compound 0.000949 µM): 56.8% | viability, T/C (second compound 3.16 µM, first compound 0.003 µM): 43.8% | viability, T/C (second compound 3.16 µM, first compound 0.00949 µM): 48.4% | viability, T/C (second compound 3.16 µM, first compound 0.03 µM): 40.2% | viability, T/C (second compound 3.16 µM, first compound 0.0949 µM): 21.9% | viability, T/C (second compound 3.16 µM, first compound 0.3 µM): 8.5% | viability, T/C (second compound 10 µM, first compound 0.000949 µM): 4.99% | viability, T/C (second compound 10 µM, first compound 0.003 µM): 5.37% | viability, T/C (second compound 10 µM, first compound 0.00949 µM): 9.12% | viability, T/C (second compound 10 µM, first compound 0.03 µM): 7.96% | viability, T/C (second compound 10 µM, first compound 0.0949 µM): 4.98% | viability, T/C (second compound 10 µM, first compound 0.3 µM): 2.23%

CC1COCCN1c1cc(C2(S(C)(=N)=O)CC2)nc(-c2ccnc3[nH]ccc23)n1 (configuration not stated) + Cc1ccccc1N=Nc1ccc(NC(=O)c2ccnn2C)c(C)c1
IC50 [1]: 7020 nM | IC50 [2]: 7540 nM | IC50 [3]: 9320 nM | IC50 [4]: 9730 nM | IC50 [5]: > 10000 nM | viability, T/C [6]: 107% | viability, T/C [7]: 108% | viability, T/C [8]: 105% | viability, T/C [9]: 99.7% | viability, T/C [10]: 74.8% | viability, T/C [11]: 38.9% | viability, T/C [12]: 111% | viability, T/C [13]: 111% | viability, T/C [14]: 108% | viability, T/C [15]: 100% | viability, T/C [16]: 78.9% | viability, T/C [17]: 40.6% | viability, T/C [18]: 114% | viability, T/C [19]: 115% | viability, T/C [20]: 115% | viability, T/C [21]: 105% | viability, T/C [22]: 83.3% | viability, T/C [23]: 47.8% | viability, T/C [24]: 111% | viability, T/C [25]: 121% | viability, T/C [26]: 116% | viability, T/C [27]: 106% | viability, T/C [28]: 85.9% | viability, T/C [29]: 49% | viability, T/C [30]: 107% | viability, T/C [31]: 110% | viability, T/C [32]: 111% | viability, T/C [33]: 105% | viability, T/C [34]: 85.4% | viability, T/C [35]: 50.8%

COc1cccc2c1C(=O)c1c(O)c3c(c(O)c1C2=O)CC(O)(C(=O)CO)CC3OC1CC(N)C(O)C(C)O1 (configuration not stated)
viability, T/C (compound 0.0316 µM): 66.2% and 56.6% and 74% | viability, T/C (compound 0.1 µM): 55.2% and 47.4% and 58.4% | viability, T/C (compound 0.316 µM): 49.6% and 41.8% and 46.6% | viability, T/C (compound 1 µM): 28.7% and 24.1% and 25.6% | viability, T/C (compound 3.16 µM): 1.66% and 1.72% and 3.06% | viability, T/C (compound 10 µM): 1.46% and 1.1% and 1.11% | IC50 (curve of compound): 316 nM and 114 nM and 223 nM

Nc1ccccc1NC(=O)c1ccc(CNC(=O)OCc2cccnc2)cc1 + Cc1cncc(-c2nc(NCCc3c[nH]c4ccccc34)c3ncn(C(C)C)c3n2)c1
IC50 [1]: 834 nM | IC50 [2]: 731 nM | IC50 [3]: 724 nM | IC50 [4]: 549 nM | IC50 [5]: < 31.6 nM | viability, T/C [6]: 86% | viability, T/C [7]: 84.7% | viability, T/C [8]: 69.5% | viability, T/C [9]: 47.4% | viability, T/C [10]: 19.9% | viability, T/C [11]: 9.54% | viability, T/C [12]: 86% | viability, T/C [13]: 79.5% | viability, T/C [14]: 66.8% | viability, T/C [15]: 44.3% | viability, T/C [16]: 20.1% | viability, T/C [17]: 7.96% | viability, T/C [18]: 80.4% | viability, T/C [19]: 77.2% | viability, T/C [20]: 68.8% | viability, T/C [21]: 42.8% | viability, T/C [22]: 16.6% | viability, T/C [23]: 7.92% | viability, T/C [24]: 71.2% | viability, T/C [25]: 71.4% | viability, T/C [26]: 62.7% | viability, T/C [27]: 36% | viability, T/C [28]: 13.5% | viability, T/C [29]: 6.41% | viability, T/C [30]: 10.4% | viability, T/C [31]: 10.3% | viability, T/C [32]: 13.1% | viability, T/C [33]: 14.3% | viability, T/C [34]: 2.83% | viability, T/C [35]: 0.51%

COc1ccc([C@@H](O)c2cc(-c3ncnc4cc(N5CCOCC5)ccc34)c(F)cc2Cl)nn1 + CC(CO)NC(=O)c1cc(-c2ccc(Cl)cc2)nn(-c2cnn(C)c2)c1=O
IC50 [1]: 2570 nM | IC50 [2]: 2940 nM | IC50 [3]: 3610 nM | IC50 [4]: 3360 nM | IC50 [5]: 2350 nM | viability, T/C [6]: 101% | viability, T/C [7]: 107% | viability, T/C [8]: 97.6% | viability, T/C [9]: 75% | viability, T/C [10]: 45.3% | viability, T/C [11]: 23.8% | viability, T/C [12]: 105% | viability, T/C [13]: 105% | viability, T/C [14]: 102% | viability, T/C [15]: 80.4% | viability, T/C [16]: 48.6% | viability, T/C [17]: 24.4% | viability, T/C [18]: 114% | viability, T/C [19]: 115% | viability, T/C [20]: 107% | viability, T/C [21]: 87.4% | viability, T/C [22]: 52.9% | viability, T/C [23]: 28.6% | viability, T/C [24]: 99.2% | viability, T/C [25]: 102% | viability, T/C [26]: 87.3% | viability, T/C [27]: 77.5% | viability, T/C [28]: 50.5% | viability, T/C [29]: 27.7% | viability, T/C [30]: 98% | viability, T/C [31]: 96.6% | viability, T/C [32]: 85.4% | viability, T/C [33]: 69% | viability, T/C [34]: 43.3% | viability, T/C [35]: 26.2%
